Experimental findings from patent US10464925B2, “Methods to induce targeted protein degradation through bifunctional molecules” (Dana-Farber Cancer Institute, Inc., priority 2015, dated 2019) are described below.

A word on the IC50: it is the concentration that inhibits the measured activity by half. A word on the pEC50: it is −log10 of the EC50, conventionally taken in molar units. The Emax is the size of the effect at its maximum, as opposed to the concentration needed.

Assay [1] has as its system IKZF1 adjoined to nanoluciferase (Nluc). In words: IKZF1 Dual Luciferase Assay. The format is cell-based. More on the design: Nluc/Fluc IKZF1 Max Degradation: unit: %. As to conditions: 293 FT cells, 4 hours; for pIC50: read-out: Nluc/Fluc IKZF1 IC50.
The target of assay [2] is T1, CRBN-DDB1 (Homo sapiens, UniProt Q96SW2).
T1 construct: 6xHis (given for the complex); made in house; host or cells: Sf9 cells (Invitrogen), pFastBac
In words: CRBN-DDB1 Ligand-Displacement AlphaScreen Assay (thalidomide competition).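 Further: streptavidin donor and nickel chelate acceptor bead proximity signal after 30 min incubation, normalized with no-protein background as 0% and DMSO wells as 100% activity.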 In kind it is binding. In general terms: Alpha assays give light when donor and acceptor beads are brought close together.

Assay [3] concerns the target BRD4 (Homo sapiens, UniProt O60885). In words: BRD4 AlphaScreen. In kind it is binding. More on the design: […]; His tag (inferred from capture on Ni-coated acceptor beads). The conditions noted are these: for pIC50: read-out: BRD4 Alpha (IC50); for IC50: read-out: IC50 (nM) BRD4.
Assay [4] deals with T2, CRBN (Homo sapiens, UniProt Q96SW2).
T2 construct: endogenous in cells
In words: Intracellular CRBN Engagement Assay (dFKBP7 rescue). The conditions noted are these: competition with 80 nM dFKBP7, 3 hours; read-out: FKBP7 rescue (EC50). The format is cell-based.

For assay [5], the target named is T3, BRD4 adjoined to nanoluciferase (Nluc) (Homo sapiens, UniProt O60885+Q96SW2).
T3 construct: expressed in transfected cells
In words: BRD4 Dual Luciferase Assay.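 On all read-outs here: transduced reporter cells exposed to compound for 4 h, then Nluc and Fluc luminescence read, each normalized to DMSO controls and expressed as Nluc/Fluc ratio per well.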 In kind it is cell-based. As to conditions: for Emax: BRD4 remaining at Emax, read-out: BRD4− Emax (percent remaining).

The test system of assay [6] is 797. In words: Cell viability, 797 cells (Table 4). The format is cell-based. The conditions noted are these: read-out: IC50 (nM) 797.
Setting [7] is: biotin-thalidomide competition, read-out: THAL ALPHA (IC50).
Setting [8] is: 4 hours, read-out: max degradation (dual luc).
Where [9] appears, read: read-out: BRD4 max degradation(%) Dual Luciferase.

pEC50, pIC50: −log10 of the molar value. Like-named read-outs stand apart in the source and are kept apart here.

With `O=C1CCC(N2C(=O)c3cccc(O)c3C2=O)C(=O)N1` [Compound D-1, 2-(2,6-dioxopiperidin-3-yl)-4-hydroxyisoindoline-1,3-dione], the pIC50 in assay [1] is under 4.30.
With `O=C1CCC(N2C(=O)c3ccc([N+](=O)[O-])cc3C2=O)C(=O)N1` [Compound D-2, 2-(2,6-dioxopiperidin-3-yl)-5-nitroisoindoline-1,3-dione], the pIC50 in assay [2] (read-out: CRBN alpha IC50) is 5.38; in assay [1] it was under 4.30.
Turning to `CC(=O)Nc1cccc2c1C(=O)N(C1CCC(=O)NC1=O)C2=O` [Compound D-3, N-(2-(2,6-dioxopiperidin-3-yl)-1,3-dioxoisoindolin-4-yl)acetamide], the pIC50 in assay [2] (read-out: CRBN alpha IC50) was 6.18. The “Nluc/Fluc IKZF1 Max Degradation” value in assay [1] is reported as 38.24.
With `Nc1cccc2c1C(=O)N(C1CCC(=O)NC1=O)C2=O` [Compound D-4, 4-amino-2-(2,6-dioxopiperidin-3-yl)isoindoline-1,3-dione], the “Nluc/Fluc IKZF1 Max Degradation” value in assay [1] was 66.43.
Consider `CC(=O)Nc1ccc2c(c1)C(=O)N(C1CCC(=O)NC1=O)C2=O` [Compound D-5, N-(2-(2,6-dioxopiperidin-3-yl)-1,3-dioxoisoindolin-5-yl)acetamide], for which the pIC50 in assay [2] (read-out: CRBN alpha IC50) was 6.58; in assay [1], under 4.30.
With `Cc1nc2ccccc2c(=O)n1C1CCC(=O)NC1=O` [Compound D-9, 3-(2-methyl-4-oxoquinazolin-3(4H)-yl)piperidine-2,6-dione], the pIC50 in assay [2] (read-out: CRBN alpha IC50) was 4.84. The “Nluc/Fluc IKZF1 Max Degradation” value in assay [1] is 67.23.
For the molecule `O=C1CCC(N2C(=O)c3cccc([N+](=O)[O-])c3C2=O)C(=O)N1` [Compound D-10, 2-(2,6-dioxopiperidin-3-yl)-4-nitroisoindoline-1,3-dione], the values for the pIC50 in assay [2] (read-out: CRBN alpha IC50) and in assay [1] were 5.49 and under 4.30, respectively.
Turning to `Cc1nc2ccccc2c(=O)n1C1CC(=O)NC1=O` [Compound D-11, 3-(2-methyl-4-oxoquinazolin-3(4H)-yl)pyrrolidine-2,5-dione], the pIC50 was 3.90 in assay [2] (read-out: CRBN alpha IC50) and under 4.30 in assay [1].
For the molecule `O=C1CCC(N2C(=O)c3ccc(C(=O)O)cc3C2=O)C(=O)N1` [Compound D-13, 2-(2,6-dioxopiperidin-3-yl)-1,3-dioxoisoindoline-5-carboxylic acid], the pIC50 in assay [1] is under 4.30.
On to `O=C1CCC(N2C(=O)c3cccc(F)c3C2=O)C(=O)N1` [Compound D-14, 2-(2,6-dioxopiperidin-3-yl)-4-fluoroisoindoline-1,3-dione], for which the pIC50 in assay [2] (read-out: CRBN alpha IC50) was 6.22; in assay [1], under 4.30.
The matching figures for `O=C1CCC(N2C(=O)c3ccc(C(=O)NCc4ccccc4)cc3C2=O)C(=O)N1` [Compound D-15, N-benzyl-2-(2,6-dioxopiperidin-3-yl)-1,3-dioxoisoindoline-5-carboxamide]: 6.21 and under 4.30.
Regarding `O=C1CCC(N2C(=O)c3cccc(NCc4ccccc4)c3C2=O)C(=O)N1` [Compound D-16, 4-(benzylamino)-2-(2,6-dioxopiperidin-3-yl)isoindoline-1,3-dione], the pIC50 in assay [2] (read-out: CRBN alpha IC50) was 7.15. In assay [1], the “Nluc/Fluc IKZF1 Max Degradation” value came to 67.23.
For `Cc1nc2cccc(N)c2c(=O)n1C1CCC(=O)NC1=O` [Compound D-17, 3-(5-amino-2-methyl-4-oxoquinazolin-3(4H)-yl)piperidine-2,6-dione], the “Nluc/Fluc IKZF1 Max Degradation” value in assay [1] was found to be 67.59.
In the case of `CC(C)Nc1cccc2c1C(=O)N(C1CCC(=O)NC1=O)C2=O` [Compound D-18, 2-(2,6-dioxopiperidin-3-yl)-4-(isopropylamino)isoindoline-1,3-dione], in assay [2] (read-out: CRBN alpha IC50), the pIC50 was 7.60. The “Nluc/Fluc IKZF1 Max Degradation” value in assay [1] stood at 41.1.
The matching figures for `Cc1cccc2c1C(=O)N(C1CCC(=O)NC1=O)C2=O` [Compound D-19, 2-(2,6-dioxopiperidin-3-yl)-4-methylisoindoline-1,3-dione]: 6.83 and 63.37.
The like results for `CCN(CC)c1cccc2c1C(=O)N(C1CCC(=O)NC1=O)C2=O` [Compound D-21, 4-(diethylamino)-2-(2,6-dioxopiperidin-3-yl)isoindoline-1,3-dione] were, in that order, 6.79 and 17.98.
On to `O=C1CCC(N2C(=O)c3cccc(CNC(=O)C4CC4)c3C2=O)C(=O)N1` [Compound D-22, N-((2-(2,6-dioxopiperidin-3-yl)-1,3-dioxoisoindolin-4-yl)methyl)cyclopropanecarboxamide], for which, in assay [2] (read-out: CRBN alpha IC50), the pIC50 is 6.43. The “Nluc/Fluc IKZF1 Max Degradation” value in assay [1] is 52.96.
The like results for `CC(=O)NCc1cccc2c1C(=O)N(C1CCC(=O)NC1=O)C2=O` [Compound D-23, N-((2-(2,6-dioxopiperidin-3-yl)-1,3-dioxoisoindolin-4-yl)methyl)acetamide] were, in that order, 6.19 and 59.03.
In the case of `O=C1CCC(N2C(=O)c3ccc(F)cc3C2=O)C(=O)N1` [Compound D-24, 2-(2,6-dioxopiperidin-3-yl)-5-fluoroisoindoline-1,3-dione], the results for the pIC50 in assay [2] (read-out: CRBN alpha IC50) and in assay [1] were 6.31 and under 4.30, respectively.
The matching figures for `O=C1CCC(N2C(=O)c3ccc(NCc4ccccc4)cc3C2=O)C(=O)N1` [Compound D-25, 5-(benzylamino)-2-(2,6-dioxopiperidin-3-yl)isoindoline-1,3-dione]: 7.23 and under 4.30.
The like results for `CC(C)Nc1ccc2c(c1)C(=O)N(C1CCC(=O)NC1=O)C2=O` [Compound D-26, 2-(2,6-dioxopiperidin-3-yl)-5-(isopropylamino)isoindoline-1,3-dione] were, in that order, 6.95 and under 4.30.
The matching figures for `CCN(CC)c1ccc2c(c1)C(=O)N(C1CCC(=O)NC1=O)C2=O` [Compound D-27, 5-(diethylamino)-2-(2,6-dioxopiperidin-3-yl)isoindoline-1,3-dione]: 6.70 and under 4.30.
For `Cc1noc(C)c1-c1ccc(-c2nc3cnccn3c2NCC(=O)NCCCCNC(=O)COc2cccc3c2C(=O)N(C2CCC(=O)NC2=O)C3=O)cc1` (stereo not shown) [dBET13], the pIC50 in assay [3] was 5.16; in assay [2] (setting [7]), 7.97. In addition, the IC50 in assay [3] stood at 6930 nM. Moreover, the pEC50 in assay [4] is 3.66.
The matching figures for `Cc1noc(C)c1-c1ccc(-c2nc3cnccn3c2NCC(=O)NCCCOCCOCCOCCCNC(=O)COc2cccc3c2C(=O)N(C2CCC(=O)NC2=O)C3=O)cc1` (stereo not shown) [dBET14]: 5.05, 7.91, 8830 nM and 3.64.
`Cc1sc2c(c1C)C(c1ccc(Cl)cc1)=N[C@@H](CC(=O)NCCCCOc1cccc3c1C(=O)N(C1CCC(=O)NC1=O)C3=O)c1nnc(C)n1-2` (stereo partly shown) [dBET28]: the pIC50 in assay [2] (setting [7]) was 7.77. In addition, the results for the Dmax in assay [5] (setting [8]) and in assay [5] (setting [9]) were under 5% and over 5%, respectively. Besides, in assay [5], the Emax stood at 91.2%. Besides, the pEC50 in assay [4] is 5.11.
On to `Cc1c(C(=O)NCCCCNC(=O)COc2cccc3c2C(=O)N(C2CCC(=O)NC2=O)C3=O)sc2c1C(c1ccc(Cl)cc1)=N[C@@H](CC(=O)NCCCN1CCN(C)CC1)c1nnc(C)n1-2` (stereo partly shown) [dBET30], for which the pIC50 in assay [2] (setting [7]) was 7.58. Besides, in assay [5], the “Conc@Emax” value came out at 50 µM and the Emax was found to be 26.2%. Besides, the Dmax in assay [5] (setting [8]) was 78.5%. Besides, the Dmax in assay [5] (setting [9]) turned out to be 79%. In addition, the pEC50 in assay [4] is 2.50.
As for `Cc1cnc(Nc2ccc(N3CCN(C(=O)CCC(=O)NCCCCNC(=O)COc4cccc5c4C(=O)N(C4CCC(=O)NC4=O)C5=O)CC3)cc2)nc1Nc1cccc(S(=O)(=O)NC(C)(C)C)c1` (stereo not shown) [dBET32], the pIC50 in assay [3] was 5.48. Moreover, the values for the IC50 in assay [3] and in assay [6] were 3300 nM and 5730 nM, respectively. The Dmax in assay [5] (setting [8]) and in assay [5] (setting [9]) was 50% each time.
As to `Cc1cnc(Nc2ccc(N3CCN(C(=O)CCC(=O)NCCCCCCCCNC(=O)COc4cccc5c4C(=O)N(C4CCC(=O)NC4=O)C5=O)CC3)cc2)nc1Nc1cccc(S(=O)(=O)NC(C)(C)C)c1` (stereo not shown) [dBET33], the pIC50 in assay [3] was 5.30. The figures for the IC50 in assay [3] and in assay [6] were 4990 nM and 4000 nM, respectively. Further, the values for the Dmax in assay [5] (setting [8]) and in assay [5] (setting [9]) were 9.96% and under 10%, respectively.
The like results for `Cc1cnc(Nc2ccc(N3CCN(C(=O)CCC(=O)NCCCOCCOCCOCCCNC(=O)COc4cccc5c4C(=O)N(C4CCC(=O)NC4=O)C5=O)CC3)cc2)nc1Nc1cccc(S(=O)(=O)NC(C)(C)C)c1` (stereo not shown) [dBET34] were, in that order, 5.81, 1540 nM, 3920 nM, 24% and 24%.
As to `Cc1sc2c(c1C)C(c1ccc(Cl)cc1)=N[C@@H](CC(=O)NCCCCC(=O)Nc1cccc3c1CN(C1CCC(=O)NC1=O)C3=O)c1nnc(C)n1-2` (stereo partly shown) [dBET42], the Dmax in assay [5] (setting [8]) and in assay [5] (setting [9]) was 10% each time. Moreover, the IC50 in assay [6] amounted to 7720 nM.
`Cc1sc2c(c1C)C(c1ccc(Cl)cc1)=N[C@@H](CC(=O)NCCCCCCC(=O)Nc1cccc3c1CN(C1CCC(=O)NC1=O)C3=O)c1nnc(C)n1-2` (stereo partly shown) [dBET43]: the Dmax in assay [5] (setting [8]) and in assay [5] (setting [9]) was 13% each time. For the same molecule, the IC50 in assay [6] stood at 2250 nM.
Take `Cc1sc2c(c1C)C(c1ccc(Cl)cc1)=N[C@@H](CC(=O)NCCCCCCCC(=O)Nc1cccc3c1CN(C1CCC(=O)NC1=O)C3=O)c1nnc(C)n1-2` (stereo partly shown) [dBET44]: in assay [5] (setting [9]), the Dmax was under 10%. Further, the IC50 in assay [6] came out at 719 nM.
